Source: patent US7262186B2, “Substituted pyrazolo[3,4-d] pyrimidinones as a mitotic kinesin inhibitor” (Merck & Co., Inc., priority 2001, dated 2007)

Biological target: T1, human KSP motor domain (KSP(367H)) (Homo sapiens, UniProt P52732)
T1 construct: were used to amplify the motor domain and the neck linker region; made in house; host or cells: E. coli BL21 (DE3), pRSETa vector
T1 sequence (P52732 18-359 limits assumed): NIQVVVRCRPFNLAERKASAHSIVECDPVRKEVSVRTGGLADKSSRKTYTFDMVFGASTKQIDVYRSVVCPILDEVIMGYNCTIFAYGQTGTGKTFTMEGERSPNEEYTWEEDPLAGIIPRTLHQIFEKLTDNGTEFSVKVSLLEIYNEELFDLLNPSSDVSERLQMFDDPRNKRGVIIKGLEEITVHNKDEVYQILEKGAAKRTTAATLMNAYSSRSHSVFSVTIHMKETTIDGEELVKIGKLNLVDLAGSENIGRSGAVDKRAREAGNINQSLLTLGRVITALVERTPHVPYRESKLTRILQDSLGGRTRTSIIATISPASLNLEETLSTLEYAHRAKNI
Assay: Kinesin ATPase in vitro assay
Assay type: biochemical
Conditions: microtubule-stimulated ATPase, 1 mM ATP, 23° C., quinaldine red/ammonium molybdate phosphate detection
Text: I. Kinesin ATPase In Vitro Assay
Cloning and Expression of Human Poly-histidine Tagged KSP Motor Domain (KSP(367H))
Plasmids for the expression of the human KSP motor domain construct were cloned by PCR using a pBluescript full length human KSP construct (Blangy et al., Cell, vol. 83, pp 1159-1169, 1995) as a template. The N-terminal primer 5′-[…] (SEQ.ID.NO.: 1) and the C-terminal primer 5′-[…] […] (SEQ.ID.NO.: 2) were used to amplify the motor domain and the neck linker region. The PCR products were digested with AseI and XhoI, ligated into the NdeI/XhoI digestion product of pRSETa (Invitrogen) and transformed into E. coli BL21 (DE3).
Cells were grown at 37° C. to an OD600 of 0.5. […]
The kinesin motor domain is incubated with microtubules, 1 mM ATP (1:1 MgCl2: Na-ATP), and compound at 23° C. in buffer containing 80 mM K-HEPES (pH 7.0), 1 mM EGTA, 1 mM DTT, 1 mM MgCl2, and 50 mM KCl. […] Free phosphate from the ATP hydrolysis reaction is measured via a quinaldine red/ammonium molybdate assay by adding 150 μl of quench C buffer containing a 2:1 ratio of quench A:quench B. Quench A contains 0.1 mg/ml quinaldine red and 0.14% polyvinyl alcohol; quench B contains 12.3 mM ammonium molybdate tetrahydrate in 1.15 M sulfuric acid. The reaction is incubated for 10 minutes at 23° C., and the absorbance of the phospho-molybdate complex is measured at 540 nm.

CCC(c1nc2[nH]nc(Br)c2c(=O)n1Cc1ccccc1)N(CCN(C)C)C(=O)c1ccc(Br)cc1 (stereo not shown) [1-5, N-[1-(5-benzyl-3-bromo-4-oxo-4,5-dihydro-1H-pyrazolo[3,4-d]pyrimidin-6-yl)propyl]-4-bromo-N-[2-(dimethylamino)ethyl]benzamide]
IC50: ≤ 50 µM
